Source: paper PMC3715805 (International Journal of Molecular Sciences, 2007)

Target: T1, cyclooxygenase-1 (COX-1) (Ovis aries, UniProt P05979)
T1 sequence (P05979 25-600): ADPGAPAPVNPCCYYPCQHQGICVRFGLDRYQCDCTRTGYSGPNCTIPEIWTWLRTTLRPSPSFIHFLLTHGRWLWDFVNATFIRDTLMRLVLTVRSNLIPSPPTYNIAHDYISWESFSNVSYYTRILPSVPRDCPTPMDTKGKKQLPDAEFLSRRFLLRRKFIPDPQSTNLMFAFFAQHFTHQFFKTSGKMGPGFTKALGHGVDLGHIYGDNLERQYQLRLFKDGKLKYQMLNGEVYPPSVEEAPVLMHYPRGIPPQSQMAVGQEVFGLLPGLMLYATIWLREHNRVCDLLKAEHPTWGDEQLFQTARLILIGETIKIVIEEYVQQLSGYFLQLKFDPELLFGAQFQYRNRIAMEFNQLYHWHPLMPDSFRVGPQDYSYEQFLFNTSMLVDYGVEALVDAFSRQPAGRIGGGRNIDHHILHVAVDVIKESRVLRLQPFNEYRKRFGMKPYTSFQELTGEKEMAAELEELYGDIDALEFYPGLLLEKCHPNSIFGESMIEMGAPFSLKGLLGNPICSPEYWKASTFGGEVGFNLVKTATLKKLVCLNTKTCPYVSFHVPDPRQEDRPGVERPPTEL
Assay: O2 consumption
Type: biochemical

- IC50: > 100 µM
SMILES: COc1cc(O)c2c(=O)cc(-c3ccc(OC)c(-c4c(O)cc(O)c5c(=O)cc(-c6ccc(O)cc6)oc45)c3)oc2c1 [compound 1, ginkgetin]
